According to patent publication US5281603A, “Angiotensin II receptor blocking 2,3,6 substituted quinazolinones” (American Cyanamid Company, priority 1993, dated 1994):
pIC50: −log10 of the molar value.

Molecular target: T1, Angiotensin II Receptor (Bos taurus, UniProt P25104)
T1 construct: The brownish tissue forming the adrenal cortex is scraped off and finely minced with scissors before homogenization; from tissue; host or cells: beef adrenal cortex, microsomal membranes (100,000×g pellet)
T1 sequence (P25104 1-359): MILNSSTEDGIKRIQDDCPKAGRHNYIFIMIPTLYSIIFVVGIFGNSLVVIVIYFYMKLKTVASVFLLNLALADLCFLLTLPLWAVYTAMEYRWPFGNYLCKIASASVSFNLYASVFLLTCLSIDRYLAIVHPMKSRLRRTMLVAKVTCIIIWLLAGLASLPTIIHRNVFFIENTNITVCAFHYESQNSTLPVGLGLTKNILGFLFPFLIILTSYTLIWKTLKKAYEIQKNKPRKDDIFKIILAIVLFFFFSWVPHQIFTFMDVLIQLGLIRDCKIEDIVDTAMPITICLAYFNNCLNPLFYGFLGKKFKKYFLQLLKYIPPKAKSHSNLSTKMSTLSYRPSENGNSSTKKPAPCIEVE
Assay: Angiotensin II Receptor Binding: displacement of [^125 I](Sar^1,Ile^8)AngII from beef adrenal cortex membranes
Parameters: species or system beef (bovine)
Settings: [^125 I](Sar^1,Ile^8)AngII, beef adrenal membranes, 60 min, room temperature
From the text: Beef adrenals are obtained from a local slaughter house (Maxwell-Cohen). [^125 I](Sar^1,Ile^8)AngII, S.A. 2200 Ci/mmole, is purchased from Dupont (NEN®, Boston, Mass.). All unlabeled AngII analogs, Dimethylsulfoxide (DMSO), nucleotides, bovine serum albumin (BSA) are purchased from Sigma Chemical Co., St. Louis, Mo. U.S.A.
Approximately sixteen (16) to twenty (20) beef adrenal glands are processed as follows: fresh adrenal glands received on crushed ice are cleaned of fatty tissues and the tough membranes encapsulating the glands are removed and discarded. The brownish tissue forming the adrenal cortex is scraped off and finely minced with scissors before homogenization. Care is taken to avoid contamination with medullary tissue during dissection. The scraped cortices are suspended in twenty volumes of an ice-cold buffer medium consisting of 10 mM Tris.HCl (pH 7.4 at 22° C.) and containing 1.0 mM EDTA and 0.2M sucrose. Unless otherwise indicated, all subsequent operations are done at 4° C. […] The homogenate is centrifuged first at low speed (3,000×g) for 10 min. […] This P2 pellet is discarded and the liquid phase is carefully decanted off in clean centrifuge tubes and recentrifuged at high speed (100,000×g) for 60 min. The translucent final pellet is harvested and combined in a small volume (20-50.0 ml) of 50.0 mM Tris.HCl buffer, pH 7.2. […] The pelleted membrane is reconstituted in 50.0 mM Tris.HCl buffer containing 0.1 mM of phenylmethylsulfonyl fluoride (PMSF) to give approximately a protein concentration of 2.5 mg per ml of tissue suspension. The membrane preparation is finally aliquoted in 1.0 ml volumes and stored at -70° C. until use in the binding assays. […]
The wells are left undisturbed for 60 min. at room temperature. […] The filters are removed from the filter grid and counted in a Parkard® Cobra Gamma Counter for 1 min. […] The binding data are analyzed by the non-linear interactive "LUNDON-1" program (LUNDON SOFTWARE Inc., Cleveland, Ohio U.S.A.).

CCCCc1nc2ccc([C@@]3(C)NN[C@@H]4C(=O)N(C)C(=O)[C@@H]43)cc2c(=O)n1Cc1ccc(-c2ccccc2-c2nnn[nH]2)cc1 (relative stereo) [Example 10, (3-alpha,3aalpha,6aalpha)-3-[2-butyl-3,4-dihydro-4-oxo-3-[[2'-(1H-tetrazol-5-yl)-[1,1'-biphenyl]-4-yl]methyl]-6-quinazolinyl]-2,3,3a,6a-tetrahydro-3,5-dimethyl-pyrrolo[3,4-c]pyrazole-4,6(1H,5H)-dione]
pIC50: 6.06

CCCCc1nc2ccc(C3=NN[C@H]4C(=O)N(C)C(=O)[C@@H]34)cc2c(=O)n1Cc1ccc(-c2ccccc2-c2nnn[nH]2)cc1 (relative stereo) [Example 7]
pIC50: 6.74
